ChEMBL document CHEMBL1150937, “Aeruginosin 103-A, a thrombin inhibitor from the cyanobacterium Microcystis viridis” (J Nat Prod, 1998)
Converted amounts (≈) assume the structure as drawn.

Tests used:
Prothrombin = Prothrombin (Homo sapiens, UniProt P00734); test: Inhibition of thrombin
[1] = Inhibition of trypsin
Plasminogen = Plasminogen (Homo sapiens, UniProt P00747); test: Inhibition of plasmin
Chain of Plasminogen (P00747 97-580 limits assumed): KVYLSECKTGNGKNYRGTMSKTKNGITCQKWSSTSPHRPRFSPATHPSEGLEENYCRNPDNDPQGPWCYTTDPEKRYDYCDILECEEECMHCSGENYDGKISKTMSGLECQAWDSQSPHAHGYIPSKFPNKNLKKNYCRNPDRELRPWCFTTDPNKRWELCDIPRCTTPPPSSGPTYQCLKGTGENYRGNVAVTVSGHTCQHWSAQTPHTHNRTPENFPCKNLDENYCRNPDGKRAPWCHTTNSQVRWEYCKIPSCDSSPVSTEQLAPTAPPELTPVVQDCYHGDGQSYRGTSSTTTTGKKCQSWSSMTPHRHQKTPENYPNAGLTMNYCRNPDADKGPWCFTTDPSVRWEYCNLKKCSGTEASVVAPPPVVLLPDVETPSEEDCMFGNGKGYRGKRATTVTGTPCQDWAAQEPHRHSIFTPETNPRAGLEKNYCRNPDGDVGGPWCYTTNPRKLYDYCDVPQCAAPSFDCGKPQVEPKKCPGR
Chain of Plasminogen (P00747 581-810 limits assumed): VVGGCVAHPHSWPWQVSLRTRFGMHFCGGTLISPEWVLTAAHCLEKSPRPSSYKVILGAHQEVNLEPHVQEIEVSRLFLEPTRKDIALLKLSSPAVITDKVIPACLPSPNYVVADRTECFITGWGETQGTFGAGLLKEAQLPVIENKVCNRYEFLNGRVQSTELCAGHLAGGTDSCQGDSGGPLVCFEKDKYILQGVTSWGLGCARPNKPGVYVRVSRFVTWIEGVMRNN

An IC50 (Prothrombin) of 13.2 µM, an IC50 [1] of 51 µg/mL (≈ 74.9 µM) and an IC50 (Plasminogen) of 99.9 µM were found for CCO[C@@H]1[C@@H](NC(=O)C2CC3CCC(O)CC3N2C(=O)[C@@H](Cc2ccc(O)cc2)NC(=O)[C@H](O)Cc2ccc(O)cc2)CCCN1C(=N)N (stereo partly drawn) in this work.
